Source: patent US20070128217A1 (priority 2003, published 2007)

Tests used:
[1] = test system: antibodies in sera from SARS patients (sera 1a, 1b, 2, 6, 37, 62, London, SARS-yellow, SARS-green); format: binding, human; design: Binding of serum 6 to linear peptides of protein X1 of SARS-CoV Urbani / Binding of serum 37 to linear peptides of protein X1 of SARS-CoV Urbani / Binding of serum 6 to looped/cyclic peptide (PEPSCAN-ELISA) / Binding of serum 37 to looped/cyclic peptide (PEPSCAN-ELISA) / Binding of serum 37 to looped/cyclic peptides of protein X1 of SARS-CoV Urbani / Binding of serum 6 to linear peptides of protein X2 / Binding of serum 37 to linear peptides of protein X2 / Binding of serum 37 to looped/cyclic peptides of protein X2 of SARS-CoV Urbani / Binding of serum 6 to linear peptides of protein M of SARS-CoV Urbani / Binding of serum 37 to linear peptides of protein M of SARS-CoV Urbani / Binding of serum 6 to looped/cyclic peptides of protein M of SARS-CoV Urbani / Binding of serum 37 to looped/cyclic peptides of protein M of SARS-CoV Urbani / Binding of serum 6 to linear peptides of protein X3 of SARS-CoV Urbani / Binding of serum 37 to linear peptides of protein X3 of SARS-CoV Urbani / Binding of serum 37 to looped/cyclic peptides of protein X3 of SARS-CoV Urbani / Binding of serum 6 to linear peptides of protein X4 of SARS-CoV Urbani / Binding of serum 37 to linear peptides of protein X4 of SARS-CoV Urbani / Binding of serum 37 to looped/cyclic peptides of protein X4 of SARS-CoV Urbani / Binding of serum 6 to linear peptides of protein X5 of SARS-CoV Urbani / Binding of serum 37 to linear peptides of protein X5 of SARS-CoV Urbani / Binding of serum 37 to looped/cyclic peptides of protein X5 of SARS-CoV Urbani / Binding of serum 6 to linear peptides of protein N of SARS-CoV Urbani / Binding of serum 37 to linear peptides of protein N of SARS-CoV Urbani / Binding of serum 6 to linear peptide (PEPSCAN-ELISA) / Binding of serum 1a to looped/cyclic peptides of protein N of SARS-CoV Urbani / Binding of serum 1b to looped/cyclic peptides of protein N of SARS-CoV Urbani / Binding of serum 2 to looped/cyclic peptides of protein N of SARS-CoV Urbani / Binding of serum 6 to looped/cyclic peptides of protein N of SARS-CoV Urbani / Binding of serum 37 to looped/cyclic peptides of protein N of SARS-CoV Urbani / Binding of serum 62 to looped/cyclic peptides of protein N of SARS-CoV Urbani / Binding of serum London to looped/cyclic peptides of protein N of SARS-CoV Urbani / Binding of serum SARS-green to looped/cyclic peptides of protein N of SARS-CoV Urbani: unit not given here
[2] = test system: control sera (pooled serum of ten healthy LUMC hospital workers; commercial negative donor pooled serum from the Dutch bloodbank); format: binding, human; design: Binding of Control serum LUMC to linear peptides / Binding of Control serum Blood-bank to linear peptides / Binding of Control serum LUMC to looped peptides / Binding of Control Serum Blood-Bank to Looped peptides / Binding of Control serum LUMC to linear peptides of the protein M of SARS-CoV Urbani / Binding of Control serum Blood-bank to linear peptides of the protein M of SARS-CoV Urbani / Binding of Control serum LUMC to looped peptides of the protein M of SARS-CoV Urbani / Binding of Control Serum Blood-Bank to Looped peptides of the protein M of SARS-CoV Urbani: unit not given here
[3] = test system: rabbit serum obtained by immunizing a rabbit with the SARS-CoV strain Frankfurt 1; format: binding; design: Binding of a rabbit serum to linear peptides / Binding of a rabbit serum to looped peptides / Rabbit serum linear peptides / Rabbit serum looped peptides / Binding of a rabbit serum to linear peptides of protein N of SARS-CoV Urbani (Rabbit serum linear peptides) / Binding of a rabbit serum to looped/cyclic peptides of protein N of SARS-CoV Urbani (Rabbit serum looped peptides): unit not given here
[4] = test system: recombinant human anti-SARS-CoV antibody 03-018; format: binding; design: Binding of antibody 03-018 to linear peptides of the N protein of SARS-CoV Urbani / Binding of antibody 03-018 to looped/cyclic peptides of the N protein of SARS-CoV Urbani: unit not given here

| Sequence | Binding of serum 1a to linear peptides of protein N of SARS-CoV Urbani [1] | Binding of serum 1a to looped/cyclic peptides of protein N of SARS-CoV Urbani [1] | Binding of serum 1b to linear peptides of protein N of SARS-CoV Urbani [1] | Binding of serum 1b to looped/cyclic peptides of protein N of SARS-CoV Urbani [1] | Binding of serum 2 to linear peptides of protein N of SARS-CoV Urbani [1] | Binding of serum 2 to looped/cyclic peptides of protein N of SARS-CoV Urbani [1] | Binding of serum 6 to linear peptides of protein N of SARS-CoV Urbani [1] | Binding of serum 6 to looped/cyclic peptides of protein N of SARS-CoV Urbani [1] | Binding of serum 37 to linear peptides of protein N of SARS-CoV Urbani [1] | Binding of serum 37 to looped/cyclic peptides of protein N of SARS-CoV Urbani [1] | Binding of serum 62 to linear peptides of protein N of SARS-CoV Urbani [1] | Binding of serum 62 to looped/cyclic peptides of protein N of SARS-CoV Urbani [1] | Binding of serum London to linear peptides of protein N of SARS-CoV Urbani [1] | Binding of serum London to looped/cyclic peptides of protein N of SARS-CoV Urbani [1] | Binding of serum SARS-green to linear peptides of protein N of SARS-CoV Urbani [1] | Binding of serum SARS-green to looped/cyclic peptides of protein N of SARS-CoV Urbani [1] | Binding of serum SARS-yellow to linear peptides of protein N of SARS-CoV Urbani [1] | Binding of serum SARS-yellow to looped/cyclic peptides of protein N of SARS-CoV Urbani [1] | Binding of a rabbit serum to linear peptides of protein N of SARS-CoV Urbani (Rabbit serum linear peptides) [3] | Binding of a rabbit serum to looped/cyclic peptides of protein N of SARS-CoV Urbani (Rabbit serum looped peptides) [3] | also measured |
| --- | --- | --- | --- | --- | --- | --- | --- | --- | --- | --- | --- | --- | --- | --- | --- | --- | --- | --- | --- | --- | --- |
| PKQRRPQGLPNNTAS | 0.2 | 0.5 | 0.1 | 0.5 | 0.4 | 0.8 | 0.2 | 0.4 | 0.9 | 0.8 | 0.7 | 0.7 | 0.6 | 0.6 | 0.6 | 3.1 | 0.6 | 0.9 | 0.2 | 0.2 | Binding of Control Serum Blood-Bank to Looped peptides [2]: 0.8; Binding of Control serum Blood-bank to linear peptides [2]: 0.8; Binding of Control serum LUMC to linear peptides [2]: 0.7; Binding of Control serum LUMC to looped peptides [2]: 1.0; Binding of antibody 03-018 to linear peptides of the N protein of SARS-CoV Urbani [4]: 0.2; Binding of antibody 03-018 to looped/cyclic peptides of the N protein of SARS-CoV Urbani [4]: 0.3 |
| LLPAADMDDFSRQLQ | 0.3 | 0.3 | 0.2 | 0.1 | 0.3 | 0.4 | 0.3 | 0.1 | 0.8 | 0.5 | 0.6 | 0.2 | 0.6 | 0.3 | 0.4 | 0.2 | 0.6 | 0.3 | 0.1 | 0.2 | Control Serum Blood-Bank Looped peptides [2]: 0.4; Control serum Blood-bank linear peptides [2]: 0.7; Control serum LUMC linear peptides [2]: 0.6; Control serum LUMC looped peptides [2]: 0.4; Binding of antibody 03-018 to linear peptides of the N protein of SARS-CoV Urbani [4]: 0.1; Binding of antibody 03-018 to looped/cyclic peptides of the N protein of SARS-CoV Urbani [4]: 0.2 |
| TWLTYHGAIKLDDKD | 0.2 | 0.2 | 0.1 | 0.2 | 0.1 | 0.2 | 0.2 | 0.1 | 0.6 | 0.4 | 0.6 | 0.3 | 0.5 | 0.2 | 0.3 | 0.3 | 0.6 | 0.3 | 0.1 | 0.3 | Control Serum Blood-Bank Looped peptides [2]: 0.4; Control serum Blood-bank linear peptides [2]: 0.6; Control serum LUMC linear peptides [2]: 0.6; Control serum LUMC looped peptides [2]: 0.4; Binding of antibody 03-018 to linear peptides of the N protein of SARS-CoV Urbani [4]: 0.1; Binding of antibody 03-018 to looped/cyclic peptides of the N protein of SARS-CoV Urbani [4]: 0.2 |
| KDKKKKTDEAQPLPQ | 0.2 | 0.2 | 0.1 | 0.1 | 0.2 | 0.2 | 0.2 | 0.2 | 0.7 | 0.4 | 0.6 | 0.3 | 0.6 | 0.4 | 0.5 | 0.1 | 0.5 | 0.1 | 0.1 | 0.0 | Control Serum Blood-Bank Looped peptides [2]: 0.5; Control serum Blood-bank linear peptides [2]: 0.6; Control serum LUMC linear peptides [2]: 0.6; Control serum LUMC looped peptides [2]: 0.4; Binding of antibody 03-018 to linear peptides of the N protein of SARS-CoV Urbani [4]: 0.1; Binding of antibody 03-018 to looped/cyclic peptides of the N protein of SARS-CoV Urbani [4]: 0.2 |
